Experimental data taken from patent publication US8802597B2, “Herbicidal pyrimidines” (E I du Pont de Nemours and Company, priority 2003, dated 2014).

Experiments:
Assay in all cases: Test E flooded paddy water application
Format in all cases: in vivo
[1] = tested on: late watergrass (Echinochloa oryzicola); details: Flood, 21 days, scale 0 to 100 (0 no effect, 100 complete control); for Plant response rating, Watergrass, Late: 16 g ai/ha
Summary of the method: (§1)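 Response scored visually on a 0–100 scale (100 = complete control) at 21 days against untreated pots. Treatment was into paddy water 3 cm deep over silt loam, with plants at the 2.0–2.5-leaf stage, grown under 16-h light at 29.5/26.7 °C day/night.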

[2] = tested on: water seeded rice seedlings (Oryza sativa cv. ‘Japonica-M202’); details: Flood, 21 days, scale 0 to 100 (0 no effect, 100 complete control); for Plant response rating, Rice, Water Seeded: 16 g ai/ha
Summary of the method: as §1

[3] = tested on: junglerice (Echinochloa colona); details: Flood, 21 days, scale 0 to 100 (0 no effect, 100 complete control); for Plant response rating, Junglerice: 16 g ai/ha
Summary of the method: as §1

[4] = tested on: smallflower umbrella sedge (Cyperus difformis); details: Flood, 21 days, scale 0 to 100 (0 no effect, 100 complete control); for Plant response rating, Sedge, Umbrella: 16 g ai/ha
Summary of the method: as §1

[5] = tested on: transplanted rice seedlings (Oryza sativa cv. ‘Japonica-M202’); details: Flood, 21 days, scale 0 to 100 (0 no effect, 100 complete control); for Plant response rating, Rice, Transplanted: 16 g ai/ha
Summary of the method: as §1

[6] = tested on: ducksalad (Heteranthera limosa); details: Flood, 21 days, scale 0 to 100 (0 no effect, 100 complete control); for Plant response rating, Ducksalad: 16 g ai/ha
Summary of the method: as §1

[7] = tested on: barnyardgrass (Echinochloa crus-galli); details: Flood, 21 days, scale 0 to 100 (0 no effect, 100 complete control); for Plant response rating, Barnyardgrass: 16 g ai/ha
Summary of the method: as §1

[8] = tested on: early watergrass (Echinochloa oryzoides); details: Flood, 21 days, scale 0 to 100 (0 no effect, 100 complete control); for Plant response rating, Watergrass, Early: 16 g ai/ha
Summary of the method: as §1

[9] = tested on: bearded (brdd.) sprangletop (Leptochloa fusca ssp. fascicularis); details: Flood, 21 days, scale 0 to 100 (0 no effect, 100 complete control); for Plant response rating, Sprangletop, Brdd.: 16 g ai/ha
Summary of the method: as §1

[10] = tested on: rice flatsedge (Cyperus iria); details: Flood, 21 days, scale 0 to 100 (0 no effect, 100 complete control); for Plant response rating, Flatsedge, Rice: 16 g ai/ha
Summary of the method: as §1

## Nc1nc(-c2ccc(Cl)cc2)nc(C(=O)O)c1Br [Compound 88]
[1]; 32 g ai/ha
  Watergrass, Late plant response rating: 0
[1]; 64 g ai/ha
  Watergrass, Late plant response rating: 0
[1]; 125 g ai/ha
  Watergrass, Late plant response rating: 0
[1]; 250 g ai/ha
  Watergrass, Late plant response rating: 0
[1]
  Plant response rating, Watergrass, Late: 0
[2]; 32 g ai/ha
  Rice, Water Seeded plant response rating: 0
[2]; 64 g ai/ha
  Rice, Water Seeded plant response rating: 0
[2]; 125 g ai/ha
  Rice, Water Seeded plant response rating: 0
[2]; 250 g ai/ha
  Rice, Water Seeded plant response rating: 0
[2]
  Plant response rating, Rice, Water Seeded: 0
[3]; 32 g ai/ha
  Junglerice plant response rating: 0
[3]; 64 g ai/ha
  Junglerice plant response rating: 0
[3]; 125 g ai/ha
  Junglerice plant response rating: 0
[3]; 250 g ai/ha
  Junglerice plant response rating: 90
[3]
  Plant response rating, Junglerice: 0
[4]; 32 g ai/ha
  Sedge, Umbrella plant response rating: 40
[4]; 125 g ai/ha
  Sedge, Umbrella plant response rating: 85
[4]; 250 g ai/ha
  Sedge, Umbrella plant response rating: 95
[4]
  Plant response rating, Sedge, Umbrella: 40
[5]; 32 g ai/ha
  Rice, Transplanted plant response rating: 0
[5]; 64 g ai/ha
  Rice, Transplanted plant response rating: 0
[5]; 125 g ai/ha
  Rice, Transplanted plant response rating: 0
[5]; 250 g ai/ha
  Rice, Transplanted plant response rating: 0
[5]
  Plant response rating, Rice, Transplanted: 0
[6]; 32 g ai/ha
  Ducksalad plant response rating: 100
[6]; 64 g ai/ha
  Ducksalad plant response rating: 100
[6]; 125 g ai/ha
  Ducksalad plant response rating: 100
[6]; 250 g ai/ha
  Ducksalad plant response rating: 100
[6]
  Plant response rating, Ducksalad: 95
[7]; 32 g ai/ha
  Barnyardgrass plant response rating: 0
[7]; 64 g ai/ha
  Barnyardgrass plant response rating: 0
[7]; 125 g ai/ha
  Barnyardgrass plant response rating: 0
[7]; 250 g ai/ha
  Barnyardgrass plant response rating: 0
[7]
  Plant response rating, Barnyardgrass: 0
[8]; 32 g ai/ha
  Watergrass, Early plant response rating: 0
[8]; 64 g ai/ha
  Watergrass, Early plant response rating: 0
[8]; 125 g ai/ha
  Watergrass, Early plant response rating: 0
[8]; 250 g ai/ha
  Watergrass, Early plant response rating: 50
[8]
  Plant response rating, Watergrass, Early: 0
[9]; 32 g ai/ha
  Sprangletop, Brdd. plant response rating: 0
[9]; 64 g ai/ha
  Sprangletop, Brdd. plant response rating: 0
[9]; 125 g ai/ha
  Sprangletop, Brdd. plant response rating: 85
[9]; 250 g ai/ha
  Sprangletop, Brdd. plant response rating: 95
[9]
  Plant response rating, Sprangletop, Brdd.: 0
[10]; 32 g ai/ha
  Flatsedge, Rice plant response rating: 85
[10]; 64 g ai/ha
  Flatsedge, Rice plant response rating: 100
[10]; 125 g ai/ha
  Flatsedge, Rice plant response rating: 100
[10]; 250 g ai/ha
  Flatsedge, Rice plant response rating: 100
[10]
  Plant response rating, Flatsedge, Rice: 50

## Nc1nc(-c2ccc(Cl)cc2)nc(C(=O)[O-])c1Cl.[Na+] [Compound 117]
[1]; 32 g ai/ha
  Watergrass, Late plant response rating: 0
[1]; 64 g ai/ha
  Watergrass, Late plant response rating: 0
[1]; 125 g ai/ha
  Watergrass, Late plant response rating: 0
[1]; 250 g ai/ha
  Watergrass, Late plant response rating: 0
[1]
  Plant response rating, Watergrass, Late: 0
[2]; 32 g ai/ha
  Rice, Water Seeded plant response rating: 0
[2]; 64 g ai/ha
  Rice, Water Seeded plant response rating: 0
[2]; 125 g ai/ha
  Rice, Water Seeded plant response rating: 0
[2]; 250 g ai/ha
  Rice, Water Seeded plant response rating: 0
[2]
  Plant response rating, Rice, Water Seeded: 0
[3]; 32 g ai/ha
  Junglerice plant response rating: 0
[3]; 64 g ai/ha
  Junglerice plant response rating: 0
[3]; 125 g ai/ha
  Junglerice plant response rating: 0
[3]; 250 g ai/ha
  Junglerice plant response rating: 0
[3]
  Plant response rating, Junglerice: 0
[4]; 32 g ai/ha
  Sedge, Umbrella plant response rating: 85
[4]; 64 g ai/ha
  Sedge, Umbrella plant response rating: 100
[4]; 125 g ai/ha
  Sedge, Umbrella plant response rating: 100
[4]; 250 g ai/ha
  Sedge, Umbrella plant response rating: 100
[4]
  Plant response rating, Sedge, Umbrella: 60
[5]; 32 g ai/ha
  Rice, Transplanted plant response rating: 0
[5]; 64 g ai/ha
  Rice, Transplanted plant response rating: 0
[5]; 125 g ai/ha
  Rice, Transplanted plant response rating: 0
[5]; 250 g ai/ha
  Rice, Transplanted plant response rating: 20
[5]
  Plant response rating, Rice, Transplanted: 0
[6]; 32 g ai/ha
  Ducksalad plant response rating: 100
[6]; 64 g ai/ha
  Ducksalad plant response rating: 100
[6]; 125 g ai/ha
  Ducksalad plant response rating: 100
[6]; 250 g ai/ha
  Ducksalad plant response rating: 100
[6]
  Plant response rating, Ducksalad: 100
[7]; 32 g ai/ha
  Barnyardgrass plant response rating: 0
[7]; 64 g ai/ha
  Barnyardgrass plant response rating: 0
[7]; 125 g ai/ha
  Barnyardgrass plant response rating: 0
[7]; 250 g ai/ha
  Barnyardgrass plant response rating: 0
[7]
  Plant response rating, Barnyardgrass: 0
[8]; 32 g ai/ha
  Watergrass, Early plant response rating: 0
[8]; 64 g ai/ha
  Watergrass, Early plant response rating: 0
[8]; 125 g ai/ha
  Watergrass, Early plant response rating: 0
[8]; 250 g ai/ha
  Watergrass, Early plant response rating: 0
[8]
  Plant response rating, Watergrass, Early: 0
[9]; 32 g ai/ha
  Sprangletop, Brdd. plant response rating: 0
[9]; 64 g ai/ha
  Sprangletop, Brdd. plant response rating: 0
[9]; 125 g ai/ha
  Sprangletop, Brdd. plant response rating: 0
[9]; 250 g ai/ha
  Sprangletop, Brdd. plant response rating: 0
[9]
  Plant response rating, Sprangletop, Brdd.: 0
[10]; 32 g ai/ha
  Flatsedge, Rice plant response rating: 100
[10]; 64 g ai/ha
  Flatsedge, Rice plant response rating: 100
[10]; 125 g ai/ha
  Flatsedge, Rice plant response rating: 100
[10]; 250 g ai/ha
  Flatsedge, Rice plant response rating: 100
[10]
  Plant response rating, Flatsedge, Rice: 100
